In brackets after ≈: the same amount, converted by molar mass. Where a SMILES comes first, the peptide text is derived from it.
Assays:
[1] = tested on: virus–host endosomal acidification in H1N1-infected MDCK cells; type: cell-based, canine
H1N1 virus [2] = tested on: H1N1 virus
H1N1 virus [3] = tested on: H1N1 virus; remark: listed apart in the source
SARS-CoV-2 [4] = tested on: SARS-CoV-2
SARS-CoV-2 [5] = tested on: SARS-CoV-2; remark: listed apart in the source
SARS-CoV-2 [6] = type: binding
physchem = conditions: water
rhinovirus [7] = type: binding
H1N1 HA1 protein = H1N1 HA1 protein (Influenza A virus, UniProt C3W5S1)
[8] = tested on: endosomal acidification in MDCK cells; type: cell-based, canine
H1N1 virus [9] = tested on: H1N1 virus; remark: listed apart in the source
SARS-CoV-2 [10] = conditions: 24 h, pH 7.4
rhinovirus [11] = tested on: rhinovirus
MERS-CoV S protein = MERS-CoV S protein (Middle East respiratory syndrome-related coronavirus, UniProt K9N5Q8)
parainfluenza virus 3 = conditions: 24 h, pH 7.4

Chain of H1N1 HA1 protein (C3W5S1 18-344 limits assumed): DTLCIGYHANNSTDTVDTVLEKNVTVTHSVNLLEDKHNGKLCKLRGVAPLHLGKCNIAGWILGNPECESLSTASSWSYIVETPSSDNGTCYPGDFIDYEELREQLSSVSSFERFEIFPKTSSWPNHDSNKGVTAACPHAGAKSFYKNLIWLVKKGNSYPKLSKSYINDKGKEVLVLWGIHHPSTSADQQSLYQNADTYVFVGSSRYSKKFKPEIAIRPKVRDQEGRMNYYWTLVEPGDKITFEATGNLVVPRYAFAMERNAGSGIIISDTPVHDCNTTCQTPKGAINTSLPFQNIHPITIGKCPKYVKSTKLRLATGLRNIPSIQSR
Chain of MERS-CoV S protein (K9N5Q8 18-1353 limits assumed): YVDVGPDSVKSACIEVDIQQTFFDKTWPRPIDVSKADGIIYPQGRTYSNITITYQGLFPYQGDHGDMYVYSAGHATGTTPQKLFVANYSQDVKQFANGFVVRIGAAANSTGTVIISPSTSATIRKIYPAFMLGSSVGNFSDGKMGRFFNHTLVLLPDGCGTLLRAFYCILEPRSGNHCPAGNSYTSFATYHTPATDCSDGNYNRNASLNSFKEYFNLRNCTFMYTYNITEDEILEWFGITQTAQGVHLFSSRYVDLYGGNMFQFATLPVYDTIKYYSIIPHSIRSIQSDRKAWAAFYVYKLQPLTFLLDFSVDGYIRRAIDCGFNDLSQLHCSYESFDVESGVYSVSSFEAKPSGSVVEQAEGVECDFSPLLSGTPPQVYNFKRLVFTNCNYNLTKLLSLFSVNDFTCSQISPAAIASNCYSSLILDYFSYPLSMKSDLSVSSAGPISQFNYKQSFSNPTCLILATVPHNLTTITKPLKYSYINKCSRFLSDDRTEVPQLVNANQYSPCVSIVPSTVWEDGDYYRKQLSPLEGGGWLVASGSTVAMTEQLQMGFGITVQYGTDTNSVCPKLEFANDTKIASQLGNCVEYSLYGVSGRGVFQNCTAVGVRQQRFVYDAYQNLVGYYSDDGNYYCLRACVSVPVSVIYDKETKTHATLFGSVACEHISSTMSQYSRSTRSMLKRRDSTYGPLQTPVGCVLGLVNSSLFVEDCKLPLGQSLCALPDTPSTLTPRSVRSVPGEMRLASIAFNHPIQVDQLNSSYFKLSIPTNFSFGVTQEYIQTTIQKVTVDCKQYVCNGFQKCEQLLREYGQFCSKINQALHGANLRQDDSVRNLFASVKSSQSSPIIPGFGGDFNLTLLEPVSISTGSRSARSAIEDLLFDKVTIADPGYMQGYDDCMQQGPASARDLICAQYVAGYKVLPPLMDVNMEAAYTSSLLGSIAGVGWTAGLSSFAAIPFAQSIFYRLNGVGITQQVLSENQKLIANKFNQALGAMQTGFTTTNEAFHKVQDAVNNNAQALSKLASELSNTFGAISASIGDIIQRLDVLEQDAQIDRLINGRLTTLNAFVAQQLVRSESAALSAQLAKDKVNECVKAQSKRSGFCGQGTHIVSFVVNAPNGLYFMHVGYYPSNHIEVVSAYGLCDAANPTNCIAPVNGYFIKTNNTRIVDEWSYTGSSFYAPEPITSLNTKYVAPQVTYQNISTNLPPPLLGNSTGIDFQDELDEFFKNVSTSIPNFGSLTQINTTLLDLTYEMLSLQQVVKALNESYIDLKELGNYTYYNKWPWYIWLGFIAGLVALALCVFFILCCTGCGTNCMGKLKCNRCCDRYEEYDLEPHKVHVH

Structure (SMILES) | inhibition of virus–host endosomal acidification in infected live cells [1] | antiviral activity when cells were pretreated before viral infection (H1N1 virus [2]) | effect on viral attachment (H1N1 virus [3]) | inhibition of viral replication, A(H7N9) virus (A(H7N9) virus) [fold] | inhibition of viral replication when added after SARS-CoV-2 infection (SARS-CoV-2 [4]) | inhibition of viral replication, SARS-CoV-2 (SARS-CoV-2 [5]) | binding to SARS-CoV-2 (SARS-CoV-2 [6]) | solubility (physchem) [µg/mL] | binding to rhinovirus (rhinovirus [7]) | inhibition of viral replication, SARS-CoV (SARS-CoV) | binding to H1N1 HA1 protein (H1N1 HA1 protein) | inhibition of endosomal acidification in live cells [8] | viral replication after 10,000-fold dilution of virus-peptide mixture (H1N1 virus [9]) | IC50 against SARS-CoV-2 (SARS-CoV-2 [10]) [µg/mL] | inhibition of viral replication, rhinovirus (rhinovirus [11]) [fold] | binding to MERS-CoV S protein (MERS-CoV S protein) | inhibition of viral replication, MERS-CoV (MERS-CoV) | IC50 against parainfluenza virus 3 (parainfluenza virus 3) [µg/mL]
CO/C1=C\C(C)=C\[C@@H](C)[C@@H](O)[C@@H](C)C/C(C)=C/C=C/[C@H](OC)[C@@H]([C@@H](C)[C@@H](O)[C@H](C)[C@@]2(O)C[C@@H](O)[C@H](C)[C@@H](C(C)C)O2)OC1=O [bafilomycin A1, reference compound] | could efficiently inhibit |  |  |  |  |  |  |  |  |  |  |  |  |  |  |  |  | 
CC[C@H](C)[C@H](NC(=O)[C@H](C)NC(=O)CNC(=O)[C@@H](N)CC(N)=O)C(=O)N[C@@H](CS)C(=O)N[C@@H](Cc1c[nH]c2ccccc12)C(=O)NCC(=O)N1CCC[C@H]1C(=O)N[C@@H](CS)C(=O)N1CCC[C@H]1C(=O)N[C@H](C(=O)N[C@@H](C)C(=O)N[C@@H](Cc1ccccc1)C(=O)N[C@@H](CCCNC(=N)N)C(=O)N[C@@H](CCC(N)=O)C(=O)N[C@H](C(=O)NCC(=O)N[C@@H](CC(N)=O)C(=O)N[C@@H](CS)C(=O)NCC(=O)N[C@@H](CCCNC(=N)N)C(=O)N[C@@H](Cc1ccccc1)C(=O)N[C@@H](CCCNC(=N)N)C(=O)N[C@H](C(=O)N[C@@H](CCCNC(=N)N)C(=O)N[C@@H](CS)C(=O)N[C@@H](CS)C(=O)N[C@@H](CCCNC(=N)N)C(=O)N[C@H](C(=O)N[C@@H](CCCNC(=N)N)C(=O)O)[C@@H](C)CC)C(C)C)[C@@H](C)CC)[C@@H](C)O [P9R] (H-NGAICWGPCPTAFRQIGNCGRFRVRCCRIR-OH) | could efficiently inhibit | did not show antiviral activity | did not affect viral attachment | > 20 | could also significantly inhibit viral replication | more than 100 fold | could efficiently bind | > 5000 | could also bind | more than 100 fold | could also bind | could more significantly inhibit endosomal acidification in live cells than that of P9 | could significantly inhibit viral replication | 0.9 (≈ 0.264 µM) | > 20 | could also bind | more than 100 fold | > 25.0
CC[C@H](C)[C@H](NC(=O)[C@H](C)NC(=O)CNC(=O)[C@@H](N)CC(N)=O)C(=O)N[C@@H](CS)C(=O)N[C@@H](Cc1c[nH]c2ccccc12)C(=O)NCC(=O)N1CCC[C@H]1C(=O)N[C@@H](CS)C(=O)N1CCC[C@H]1C(=O)N[C@H](C(=O)N[C@@H](C)C(=O)N[C@@H](Cc1ccccc1)C(=O)N[C@@H](CCCNC(=N)N)C(=O)N[C@@H](CCC(N)=O)C(=O)N[C@H](C(=O)NCC(=O)N[C@@H](CC(N)=O)C(=O)N[C@@H](CS)C(=O)NCC(=O)N[C@@H](Cc1c[nH]cn1)C(=O)N[C@@H](Cc1ccccc1)C(=O)N[C@@H](CCCCN)C(=O)N[C@H](C(=O)N[C@@H](CCCNC(=N)N)C(=O)N[C@@H](CS)C(=O)N[C@@H](CS)C(=O)N[C@@H](CCCCN)C(=O)N[C@H](C(=O)N[C@@H](CCCNC(=N)N)C(=O)O)[C@@H](C)CC)C(C)C)[C@@H](C)CC)[C@@H](C)O [P9, reference compound] (H-NGAICWGPCPTAFRQIGNCGHFKVRCCKIR-OH) |  |  |  |  |  |  |  |  |  |  |  |  |  | 2.4 (≈ 0.719 µM) |  |  |  | > 25.0

— paper PMC7447754 (Nature Communications, 2020)
